Data as given in patent US20210138025A1, “CATIONIC PEPTIDES WITH IMMUNOMODULATORY AND/OR ANTI-BIOFILM ACTIVITIES” (priority 2018, published 2021).

What was measured:
MCP-1 = MCP-1 chemokine induction in human PBMCs, ELISA (Tables 6, 7; FIGS. 6-9, 13); format: cell-based; settings: SPOT synthesized control peptides, determined as in Table 6; Table 7
Protocol: Venous blood (20 ml) from healthy volunteers was collected in Vacutainer® collection tubes containing sodium heparin as an anticoagulant (Becton Dickinson, Mississauga, ON) in accordance with UBC ethical approval and guidelines. Blood was diluted 1:1 with complete RPMI 1640 medium and separated by centrifugation over a Ficoll-Paque® Plus (Amersham Biosciences, Piscataway, N.J., USA) density gradient. White blood cells were isolated from the buffy coat, washed twice in PBS and then resuspended in RPMI 1640 complete medium (containing 10% fetal bovine serum), and the number of peripheral blood mononuclear cells (PBMC) was determined by Trypan blue exclusion. PBMCs (5×10^5) were seeded into 12-well tissue culture dishes (Falcon; Becton Dickinson) at 0.75-1×10^6 cells/ml at 37° C. in 5% CO2. The above conditions were chosen to mimic conditions for circulating blood monocytes entering tissues at the site of infection via extravasation.
Following incubation of the cells under various treatment regimens, the tissue culture supernatants were centrifuged at 1000×g for 5 min, then at 10,000×g for 2 min to obtain cell-free samples. Supernatants were aliquoted and then stored at −20° C. prior to assay for various chemokines by capture ELISA (eBioscience and BioSource International Inc., CA, USA respectively)

IL-1β = experiment: Suppression of LPS-induced IL-1β production in human PBMCs, ELISA (Tables 6, 7; FIGS. 6-9, 13); settings: SPOT synthesized control peptides, determined as in Table 6; Table 7
S. aureus (MRSA SAP0017) = format: cell-based, Staphylococcus aureus; settings: SPOT synthesized control peptides, determined as in Table 5; Table 7
Procedure, shortened: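 Static biofilm assay: 1/100 dilutions of overnight cultures grown with peptide at varying concentrations, added at time zero, in BM2 biofilm medium or tryptic soy broth plus 1% glucose in polypropylene plates. After 22-46 h, adherent biofilm stained with crystal violet and absorbance read at 595 nm.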

| Substance | MCPI production in PBMC (MCP-1) [pg/mL] | Fold Change in IL1-β relative to untreated LPS-stimulated cells (IL-1β) | % Biofilm Inhibition (S. aureus (MRSA SAP0017)) [%] |
| --- | --- | --- | --- |
| C17 (QQLRWKRVAKAI) [Peptide C17] | 1677 | 1.05 | 100 |
| C15 (KRVQAKAWRLQR) [Peptide C15] | 297 | 0.94 | 100 |
| C34 (WRIKKQWIQIIV) [Peptide C34] | 217 | 1.13 | 99 |
| C42 (AIGAARAWRQWA) [Peptide C42] | 114 | 0.85 | 102 |
| C40 (ALLAGRKRAVAV) [Peptide C40] | 39 | 0.89 | 102 |
| C47 (KVIQWIIVRRVL) [Peptide C47] | 1193 | 0.76 | 102 |
| C31 (RAIIKQRWQRRW) [Peptide C31] | 1649 | 1.09 | 103 |
| C28 (WIIRWIKIWLKI) [Peptide C28] | 444 | 0.88 | 72 |
| C39 (KIKLIQKQLRIK) [Peptide C39] | 286 | 0.84 | 98 |
| C38 (RIWRRAWKARWK) [Peptide C38] | 251 | 1.06 | 102 |
| C46 (IQIWIIRVIWRW) [Peptide C46] | 697 | 0.91 | 102 |
| C43 (AVIVRAAKGGAR) [Peptide C43] | 100 | 0.99 | 103 |
| C29 (VIAKIVLLRAGL) [Peptide C29] | 1809 | 0.99 | 100 |
| C20 (KLLGILKQAIVV) [Peptide C20] | 106 | 0.78 | 100 |
| C50 (IKIVRRAKIIIW) [Peptide C50] | 222 | 0.91 | 94 |
